Biological target: PCSK9 (Homo sapiens, UniProt Q8NBP7)
Assay: PCSK9-LDLR in vitro Binding Assay (ELISA)
Description: The PCSK9-LDLR in vitro Binding Assay is a quantitative solid phase binding assay between PCSK9 and recombinant LDLR. Plates were pre-coated with a recombinant LDLR-AB domain, which binds PCSK9. Test compound at different concentration was added to the PCSK9 and added to LDLR immobilized on the wells. The amount of bound PCSK9 is measured by binding it with biotinylated anti-His-tag monoclonal antibody, followed by binding with horseradish peroxidase conjugated streptavidin substrate. The color was quantified by ELISA reader at […] which reflects the relative amount of PCSK9 that binds to LDLR in presence and absence of the inhibitor. EC50 values were calculated by nonlinear regression analysis using graph pad prism software. Each concentration point represents values in duplicates.

Sequence of PCSK9 (Q8NBP7 153-692): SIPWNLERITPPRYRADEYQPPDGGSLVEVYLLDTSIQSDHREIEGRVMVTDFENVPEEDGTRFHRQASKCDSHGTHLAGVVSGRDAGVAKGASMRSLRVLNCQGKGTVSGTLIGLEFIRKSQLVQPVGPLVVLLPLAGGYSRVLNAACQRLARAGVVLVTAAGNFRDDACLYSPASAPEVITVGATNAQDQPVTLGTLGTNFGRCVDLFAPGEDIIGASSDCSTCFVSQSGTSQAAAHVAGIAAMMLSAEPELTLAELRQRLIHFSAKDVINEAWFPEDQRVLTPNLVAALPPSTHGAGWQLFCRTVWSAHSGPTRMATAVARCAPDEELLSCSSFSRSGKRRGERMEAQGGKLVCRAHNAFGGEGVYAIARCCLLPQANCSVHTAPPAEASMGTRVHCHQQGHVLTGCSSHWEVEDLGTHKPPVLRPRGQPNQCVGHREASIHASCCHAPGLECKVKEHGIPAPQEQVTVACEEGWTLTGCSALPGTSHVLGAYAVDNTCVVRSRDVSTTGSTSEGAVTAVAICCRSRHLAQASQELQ
Sequence of PCSK9 (Q8NBP7 31-152 partner limits assumed): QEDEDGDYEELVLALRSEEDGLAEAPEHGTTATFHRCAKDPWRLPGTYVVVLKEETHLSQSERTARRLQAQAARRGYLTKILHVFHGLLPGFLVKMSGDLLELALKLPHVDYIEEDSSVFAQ

SMILES	% Inhibition PCSK9 (Concentration 10 μM) [%]	% Inhibition PCSK9 (Concentration 100 μM) [%]	% Inhibition PCSK9 (Concentration 10 μM, 10 µM) [%]	% Inhibition PCSK9 (Concentration 100 μM, 100 µM) [%]	also measured
Cc1oc(-c2ccccc2)nc1CCC1COC(C)(C(=O)N2CCSCC2)OC1 (centres unmarked) [Example 45, (2-methyl-5-c-(2-(5-methyl-2-phenyloxazol-4-yl)ethyl)-1,3-dioxan-2-yl)(thiomorpholino)methanone]	11	18	–	–	–
Cc1oc(-c2ccccc2)nc1CCC1COC(C)(C(=O)N2CCOCC2)OC1 (centres unmarked) [Example 41, (2-methyl-5-c-(2-(5-methyl-2-phenyloxazol-4-yl)ethyl)-1,3-dioxan-2-yl)(morpholino)methanone]	12	19	–	–	–
Cc1oc(-c2ccccc2)nc1CC1COC(C)(C(=O)NCC(=O)N2CCOCC2)OC1 (centres unmarked) [Example 18, 2-methyl-5-((5-methyl-2-phenyloxazol-4-yl)methyl)-N-(2-morpholino-2-oxoethyl)-1,3-dioxane-2-carboxamide]	–	–	–	–	inhibition at 1 µM (Concentration 1 μM): 40%; inhibition at 100 µM (Concentration 100 μM): 39%
CC(=O)C(Cc1ccccc1)NC(=O)CNC(=O)C1(C)OCC(CCc2nc(-c3ccccc3)oc2C)CO1 (centres unmarked) [Example 55, 2-methyl-5-(2-(5-methyl-2-phenyloxazol-4-yl)ethyl)-N-(2-oxo-2-((3-oxo-1-phenylbutan-2-yl)amino)ethyl)-1,3-dioxane-2-carboxamide]	–	–	–	–	inhibition at 10 µM (Concentration 10 μM): 23%; inhibition at 100 µM (Concentration 100 μM): 30%
Cc1oc(-c2ccccc2)nc1CC1COC(C)(C(=O)N2CCS(=O)(=O)CC2)OC1 (centres unmarked) [Example 17, (1,1-dioxidothiomorpholino)(2-methyl-5-c-((5-methyl-2-phenyloxazol-4-yl)methyl)-1,3-dioxan-2-yl)methanone]	–	15	–	–	–
Cc1oc(-c2ccccc2)nc1CC1COC(C)(C(=O)N2CCCCC2)OC1 (centres unmarked) [Example 15, (2-methyl-5-c-((5-methyl-2-phenyloxazol-4-yl)methyl)-1,3-dioxan-2-yl)(piperidin-1-yl)methanone]	11	4	–	–	–
Cc1oc(-c2ccccc2)nc1CC1COC(C)(C(=O)NCC(=O)N2CCSCC2)OC1 (centres unmarked) [Example 23, 2-methyl-5-c-((5-methyl-2-phenyloxazol-4-yl)methyl)-N-(2-oxo-2-thiomorpholinoethyl)-1,3-dioxane-2-carboxamide]	21	22	–	–	–

The next lines start with results.

% Inhibition PCSK9 (Concentration 10 μM) [%]	% Inhibition PCSK9 (Concentration 100 μM) [%]	% Inhibition PCSK9 (Concentration 10 μM, 10 µM) [%]	% Inhibition PCSK9 (Concentration 100 μM, 100 µM) [%]	SMILES	also measured
–	–	12	7	Cc1oc(-c2ccncc2)nc1CC1COC(C)(C(=O)NCC(=O)N2CCOCC2)OC1 (centres unmarked) [Example 87, 2-methyl-5-t-((5-methyl-2-(pyridin-4-yl)oxazol-4-yl)methyl)-N-(2-morpholino-2-oxoethyl)-1,3-dioxane-2-carboxamide]	–
–	–	26	70	Cc1ccc(-c2nc(CC3COC(C)(C(=O)NO)OC3)c(C)o2)cc1 (centres unmarked) [Example 60, N-hydroxy-2-methyl-5-c-((5-methyl-2-(p-tolyl)oxazol-4-yl)methyl)-1,3-dioxane-2-carboxamide]	% Inhibition PCSK9 (Concentration 1 μM): 28%
–	–	14	16	Cc1ccc(-c2nc(CC3COC(C)(C(=O)N4CCOCC4)OC3)c(C)o2)s1 (centres unmarked) [Example 77]	–
–	–	17	27	Cc1ccc(-c2nc(CC3COC(C)(C(=O)N4CCOCC4)OC3)c(C)o2)s1 (centres unmarked) [Example 76]	% Inhibition PCSK9 (Concentration 1 μM): 6%
–	–	11	20	Cc1ccc(-c2nc(CC3COC(C)(C(=O)NCC4CCOCC4)OC3)c(C)o2)s1 (centres unmarked) [Example 75, 2-methyl-5-t-((5-methyl-2-(5-methylthiophen-2-yl)oxazol-4-yl)methyl)-N—((tetrahydro-2H-pyran-4-yl)methyl)-1,3-dioxane-2-carboxamide]	% Inhibition PCSK9 (Concentration 1 μM, 1 µM): 15%
–	–	25	31	Cc1ccc(-c2nc(CC3COC(C)(C(=O)N4CCOCC4)OC3)c(C)o2)cc1 (centres unmarked) [Example 66, (2-methyl-5-c-((5-methyl-2-(p-tolyl)oxazol-4-yl)methyl)-1,3-dioxan-2-yl)(morpholino)methanone]	% Inhibition PCSK9 (Concentration 1 μM, 1 µM): 23%

From patent publication US20120252796A1, “COMPOUNDS FOR THE TREATMENT OF DYSLIPIDEMIA AND RELATED DISEASES” (priority 2009, published 2012)
